Data on 5 molecules can be found in patent US20140309275A1, “Sphingosine Analogs, Compositions, and Methods Related Thereto” (Emory University, priority 2011, published 2014).

Usually melting point stands for the temperature of the solid-liquid transition.

Data set [1] is described as follows: Mouse tumor concentrations (human prostate cancer xenograft). It is filed as in vivo, Nude mice. Also on record: unit not given here. To be noted: tumors harvested, LC/MS/MS. An excerpt: Nude mice were subjected to human prostate cancer xenograft procedures, and resulting tumors were allowed to grow for 16 days. […] Once the scheduled time course had passed, the mice were sacrificed. Tumors were harvested, homogenized, and analyzed by LC/MS/MS for tumor-drug concentration.
A general note: A xenograft is tissue or cells of one species grown in another, often human tumour cells in immunodeficient mice.

The test system of data set [2] is P. falciparum chloroquine susceptible (CQ-S) D6 strain. In words: [3H]-labeled hypoxanthine uptake assay, P. falciparum D6. Format: cell-based. To be noted: Plasmodium falciparum, read-out: IC50 D6. An excerpt:
(§1) The [^3H]-labeled hypoxanthine uptake method was utilized to assay the effectiveness of our sphingoid base analogs in vitro for their ability to inhibit the growth and replication of malaria parasites in RBCs. […] The simian malaria parasite P. knowlesi has also been recognized as a human pathogen of public health concern in South East Asia, and it can be cultured effectively in vitro. This species was therefore included to probe the potential of multi-species efficacy within this compound class.
(§2) Cryopreserved iRBCs were provided by Dr. John W. Barnwell from the Centers for Disease Control and Prevention and maintained in in vitro culture as described in Trager & Jensen, Science 1976, 193 (4254), 673-5.
(§3) Compounds in Table 1 were dissolved in 70% 200-proof pharmaceutical grade ethanol, and a working solution of 0.2 mg/mL was prepared using hypoxanthine- and gentamicin-free incomplete RPMI 1640 (Gibco). Compounds in Table 2 were dissolved in 200 proof pharmaceutical grade ethanol at a concentration of 50 μM and then conjugated to BSA (Sigma) as described.^5 A working solution of 0.2 mg/mL was prepared using hypoxanthine- and gentamicin-free incomplete RPMI 1640 (Gibco). Two compounds were tested per plate in triplicate starting at 0.2 mg/mL and diluted two-fold down to 0.019 μg/mL using hypoxanthine- and gentamicin-free RPMI.
(§4) Parasite inoculum was prepared by mixing parasitized blood, uninfected 0+RBCs (for P. falciparum strains) or rhesus RBCs (for P. knowlesi) and culture medium (deficient in hypoxanthine and gentamicin) to a final concentration of 1% parasitemia and 1% haematocrit. A negative control was prepared by diluting uninfected erythrocytes to 1% haematocrit in culture medium. [^3H]-labeled hypoxanthine was added at 24 h (for P. falciparum strains) or 12 h (P. knowlesi) and the culture was collected 48 h or 12 h later for P. falciparum or P. knowlesi, respectively. [^3H] uptake was measured by using a scintillation spectrophotometer (Wallac Oy 1450 MicroBeta reader).
(§5) Triplicate wells were used to calculate the IC50 for each compound using the software XLFit v5.2 using the sigmoidal model 601. Average and standard deviations were calculated using Microsoft Excel.

Data set [3] deals with P. falciparum chloroquine resistant (CQ-R) W2 strain. In words: [3H]-labeled hypoxanthine uptake assay, P. falciparum W2. It is filed as cell-based. To be noted: Plasmodium falciparum.
Source text: as §1, §2, §3, §4, §5

Data set [4] concerns sphingomyelin synthase. The note with it: background section; read-out: IC50 sphingomyelin synthase activity in RBCs; cited from earlier work.
A short description of data set [5]: Mouse PK studies (plasma and RBC levels). Format: in vivo. The note with it: mice; for PK dose proportionality / plasma half-lives: p.o. 10 or 30 mg/kg single dose. How it is done:
Enigmol (E) or N-Methyl-enigmol (NME) were dissolved as 10× stocks in ethanol, then diluted 1:10 in olive oil the day before dosing; dosing solutions were stored at room temperature overnight. Male mice, CD-1 or Swiss Webster (20 to 30 g), were dosed p.o. at either 10 or 30 mg/kg and 5 ml/kg (n=3/time point). For single dose studies with E and NME, bloods were sampled at 0.5, 1, 2, 4, 6, 8, 16 & 24 hrs. For the 5 day repeat dose study with E, samples were taken on day 5 at 0 (trough) 0.5, 1, 2, 4, 6, 8 & 24 hrs. Blood (˜0.3 ml) was obtained either from the submandibular vein using a 4 mm Small Animal Lancet (MEDIpoint), or by retro-orbital bleeding into 200 uL glass micropipettes (Drummond) under isoflurane anesthesia. Each mouse was sampled once and blood transferred immediately to 0.5 ml K EDTA or Li heparin microtainers (BD) in ice water. Tubes were centrifuged at 2000×g for 10 min in a refrigerated centrifuge to separate plasma from RBCs. The plasma supernatants and RBC pellets (when taken) were transferred into separate 1.5 mL Eppendorf tubes in ice water, then frozen on dry ice and stored at −80° C. prior to analysis by LC/MS/MS. Mouse plasma determinations of Enigmol and N-methylenigmol were done using a bioanalytical assay method consisting of a protein precipitation sample preparation step followed by analysis on an AB SCIEX QTRAP® 5500 LC/MS/MS System. The method employed an internal standard (ISTD) spiking technique with D17:0 sphinganine as the ISTD. The lower limit of quantitation (LLOQ) for the assay method was 10 ng/mL and the upper limit of quantitation (ULOQ) for the assay method was 1,000 ng/mL for both Enigmol and N-methylenigmol. Each bioanalytical run consisted of eight matrixes (mouse plasma) spiked calibration standards and six matrixes spiked quality control (QC) samples at three levels (30 ng/mL, 500 ng/mL, and 900 ng/mL) in duplicate along with unknown mouse study samples. […] Estimates of pharmacokinetic parameters from the single dose (10 mg/kg and 30 mg/kg PO) mouse studies were determined using WinNonlin® (Pharsight, Version 5.3).

For data set [6], the system named is P. knowlesi H strain. In words: [3H]-labeled hypoxanthine uptake assay, P. knowlesi. It is filed as cell-based. The note with it: Plasmodium knowlesi; Table 1; compounds dissolved in 70% ethanol, not BSA-conjugated.
Source text: The [^3H]-labeled hypoxanthine uptake method was utilized to assay the effectiveness of our sphingoid base analogs in vitro for their ability to inhibit the growth and replication of malaria parasites in RBCs. […] The simian malaria parasite P. knowlesi has also been recognized as a human pathogen of public health concern in South East Asia, and it can be cultured effectively in vitro. This species was therefore included to probe the potential of multi-species efficacy within this compound class. The data were generated with the known antimalarial drugs chloroquine and mefloquine as controls.
The H strain of P. knowlesi has been adapted to in vitro culture using Macaca mulatta (rhesus monkey) RBCs essentially as described in Kocken et al., Infect Immun 2002, 70 (2), 655-60 (the media was supplemented with 10% human AB serum).
Chloroquine (Sigma) and mefloquine (Sigma) were used as controls. Compounds in Table 1 were dissolved in 70% 200-proof pharmaceutical grade ethanol, and a working solution of 0.2 mg/mL was prepared using hypoxanthine- and gentamicin-free incomplete RPMI 1640 (Gibco). Compounds in Table 2 were dissolved in 200 proof pharmaceutical grade ethanol at a concentration of 50 μM and then conjugated to BSA (Sigma) as described.^5 A working solution of 0.2 mg/mL was prepared using hypoxanthine- and gentamicin-free incomplete RPMI 1640 (Gibco). Two compounds were tested per plate in triplicate starting at 0.2 mg/mL and diluted two-fold down to 0.019 μg/mL using hypoxanthine- and gentamicin-free RPMI.
as §4, §5

Data set [7] concerns P. falciparum W2 strain parasites. In words: Morphological changes and parasitemia upon incubation, Giemsa-stained thin blood smears. It is filed as cell-based. How it is done:
Upon preliminary examination, morphological changes were detected in the P. falciparum W2 strain parasites after incubation of the cultures with N-Methylenigmol (ESPD-507). The effect was evident between 28 h and 48 h of incubation, with a quantitatively high percentage of various aberrant or stunted forms of ring-stage and trophozoite-stage parasites found on Giemsa-stained thin blood smears (see black arrows in FIG. 2 at 28 h highlighting the presence of abundant ring-stage parasites and at 48 h, noting a vacuolated appearance of trophozoite-stage parasites). These findings can be contrasted with the normal growth, development, and maturation of the parasites without the drug.
By the 48 hour time point, the parasitemia increased from 1% to 5.8+/−0.5% with healthy appearing parasites in the control samples, as expected, while it remained at 1.3+/−0.3% and with aberrant parasite forms in the sample incubated with N-Methylenigmol (Table 2). The relative percentages of rings, trophozoites and schizonts in the cultures with and without the ESPD 507 compound were 41.9%, 39.2% and 18.9% versus 87.9%, 4.2% and 8.05, respectively.
Samples were removed every 4 h and thin blood smears were prepared, stained with modified Giemsa stain, and analyzed by light microscopy for morphological changes in growth and development. The modular incubator used was gassed and returned to 37° C. in less than 5 minutes to avoid delay in parasite growth.

In data set [8] the test system is PC-3 prostate cancer cells. In words: WST-1 cytotoxicity assay, PC-3. It is filed as cell-based. To be noted: 24 h treatment. How it is done: (§6) Prostate cancer cells were treated with enigmol or analogue for 24 h, and cytotoxicity was assessed by WST-1 assay. cLogPs were calculated with QuikProp on Maestro.
A general note: Tetrazolium assays rely on reduction of a dye to a coloured formazan, in cell work by metabolically active cells.

Data set [9] has as its system LNCaP prostate cancer cells. Briefly: WST-1 cytotoxicity assay, LNCaP. Format: cell-based. To be noted: Homo sapiens, 24 h treatment. How it is done: as §6
Setting [10] is: D6, Table 2, compounds conjugated to BSA.
Setting [11] is: W2, Table 2, compounds conjugated to BSA, read-out: IC50 W2.
[12] abbreviates: D6, Table 1, compounds dissolved in 70% ethanol, not BSA-conjugated.
The mark [13] stands for this setting: W2, Table 1, compounds dissolved in 70% ethanol, not BSA-conjugated, read-out: IC50 W2.

Where two headings read alike, the source gives them in different places.

Take `C[C@H](N)[C@@H](O)C[C@@H](O)CCCCCCCCCCCCC(F)(F)F` [CF3-Enigmol, (2S,3S,5S)-2-amino-18,18,18-trifluorooctadecane-3,5-diol]: the tumor-drug concentration came to 1147 in data set [1] (3 mg/kg p.o. once daily) and 9004 in data set [1] (10 mg/kg p.o. once daily).
The molecule `CCCCCCCCCCCCC[C@H](O)CC(=O)C(C)(C)N` [ESPD-0562, (S)-2-amino-5-hydroxy-2-methyloctadecan-3-one] gave a melting point of 31 to 33 °C. Besides, the IC50 in data set [2] (setting [10]) came to 2.5 ± 0.1 µM. Moreover, the IC50 in data set [3] (setting [11]) stood at 2.6 ± 1.5 µM.
For `CCCCCCCCCCCCCCCC(=O)NC(CN1CCOCC1)C(O)c1ccccc1` (stereo not drawn) [threo-PPMP, phenyl-2-palmitoylamino-3-morpholino-1-propanol], the IC50 in data set [4] is 0.85 µM.
As for `CCCCCCCCCCCCC[C@H](O)C[C@H](O)[C@H](C)NC` [ESPD-0507, N-Methylenigmol], the volumes of distribution entry in data set [5] was “large”. Moreover, the PK dose proportionality entry in data set [5] is listed as “dose proportional”. Further, the plasma half-lives entry in [5] is on record as “long”. Moreover, the IC50 in data set [6] came out at 1.72 ± 0.01 µM; in data set [2] (setting [12]), 4.7 ± 0.1 µM; in data set [2] (setting [10]) it was 1.7 ± 1 µM; in data set [3] (setting [13]), 1.58 ± 0.13 µM; in data set [3] (setting [11]) it was 0.9 ± 0.35 µM; in data set [3] (W2, text b183, 546.94 ng/mL used for the morphology study, W2, read-out: IC50) it was 1.73 µM. The parasitemia in data set [7] (48 hour time point, start 1%, compound at 546.94 ng/mL) is listed as 1.3+/−0.3%. In addition, the “relative percentage of rings” value in data set [7] (culture with compound, 48 h) stood at 41.9%. For the same molecule, in data set [7] (culture with compound, 48 h), the “relative percentage of schizonts” value was determined as 18.9%. The “relative percentage of trophozoites” value in data set [7] (culture with compound, 48 h) is 39.2%.
For `CCCCCCCCCCCCC[C@H](O)C[C@H](O)[C@H](C)N` [ESPD-0500, (2S,3S,5S)-2-aminooctadecane-3,5-diol], the Kp at 5 day in [5] (male, mouse, red blood cells (RBC) relative to plasma, po, 30 mg/kg, 30 mg/kg orally once per day, after 5th day of dosing, read-out: drug concentrations in RBCs relative to plasma levels) was ~3. Moreover, the volumes of distribution entry in [5] was “large”. In addition, in [5] (30 mg/kg orally once per day, after 5th day of dosing), the “plasma levels increase from accumulation” value was “about 30%”. Moreover, in data set [5], the PK dose proportionality result is listed as “dose proportional”. Further, the plasma half-lives entry in data set [5] is given as “long”. In addition, the IC50 came to 10.5 ± 0.38 µM in data set [6]; 10 µM in data set [8]; 12.6 ± 2.4 µM in data set [2] (setting [12]); 5.3 ± 1 µM in data set [2] (setting [10]); 7.37 ± 1.5 µM in data set [3] (setting [13]); 9.2 ± 2 µM in data set [3] (setting [11]). Also, the IC50 was 7 to 12 µM in data set [3] (W2, text b101, summary over W2 and D6 strains, read-out: IC50 / anti-malarial activity on both W2 and D6 strains); 13 µM in [9]. Further, the tumor-drug concentration in data set [1] (3 mg/kg p.o. once daily) is 317; in data set [1] (10 mg/kg p.o. once daily), 1565.
